The target in assay [1] is TF/FVIla (Homo sapiens, UniProt P08709). Briefly: Inhibition of TF/factor VIIa (TF/FVIIa-IC50). The assay is classed as biochemical. An excerpt: The inhibition of factor VIIa by the compounds according to the invention and the measurement of the anticoagulant and antithrombotic activity can be determined by conventional in-vitro or in-vivo methods. A conventional method for the measurement of the inhibition of factor VIIa is described, for example, by H. F. Ronning et al. in Thrombosis Research 1996, 84, 73-81.
Chain of TF/FVIla (P08709 213-466 limits assumed): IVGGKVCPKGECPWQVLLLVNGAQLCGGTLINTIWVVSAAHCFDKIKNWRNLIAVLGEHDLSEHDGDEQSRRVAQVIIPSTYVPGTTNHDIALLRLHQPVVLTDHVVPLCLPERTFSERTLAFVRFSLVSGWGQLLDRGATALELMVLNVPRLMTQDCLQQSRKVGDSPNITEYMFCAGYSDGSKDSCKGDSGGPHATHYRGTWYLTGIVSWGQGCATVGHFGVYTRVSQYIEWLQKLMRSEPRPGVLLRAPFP
Chain of TF/FVIla (P08709 61-212 partner limits assumed): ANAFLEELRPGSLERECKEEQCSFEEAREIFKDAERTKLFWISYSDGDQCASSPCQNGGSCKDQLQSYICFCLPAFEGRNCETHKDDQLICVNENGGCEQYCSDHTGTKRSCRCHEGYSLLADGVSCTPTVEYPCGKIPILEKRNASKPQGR
Chain of TF/FVIla (P13726 33-295 partner): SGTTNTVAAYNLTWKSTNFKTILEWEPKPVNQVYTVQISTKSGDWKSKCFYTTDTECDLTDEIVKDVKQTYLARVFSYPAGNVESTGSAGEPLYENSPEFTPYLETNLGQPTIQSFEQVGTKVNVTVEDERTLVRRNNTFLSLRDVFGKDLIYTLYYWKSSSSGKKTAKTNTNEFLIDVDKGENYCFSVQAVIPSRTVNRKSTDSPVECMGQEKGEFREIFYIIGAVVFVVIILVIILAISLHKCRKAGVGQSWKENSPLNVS

Assay [2] deals with FXa (Homo sapiens, UniProt P00742). As to the kind of experiment: Inhibition of factor Xa (FXa-IC50). The class given is biochemical. The text has this:
The inhibition of factor Xa by the compounds according to the invention and the measurement of the anticoagulant and antithrombotic activity can be determined by conventional in-vitro or in-vivo methods. A suitable method is described, for example, by J. Hauptmann et al. in Thrombosis and Haemostasis 1990, 63, 220-223.
The inhibition of factor Xa can be measured, for example by the method of T. Hara et al. in Thromb. Haemostas. 1994, 71, 314-319.

Chain of FXa (P00742 235-488 limits assumed): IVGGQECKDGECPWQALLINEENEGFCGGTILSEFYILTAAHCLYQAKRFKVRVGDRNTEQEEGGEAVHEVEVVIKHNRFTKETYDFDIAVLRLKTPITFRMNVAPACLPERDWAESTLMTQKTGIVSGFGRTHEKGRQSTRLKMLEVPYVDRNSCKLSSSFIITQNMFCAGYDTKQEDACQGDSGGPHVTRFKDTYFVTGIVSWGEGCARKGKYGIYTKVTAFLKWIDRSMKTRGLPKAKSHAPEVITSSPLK
Chain of FXa (P00742 41-179 partner limits assumed): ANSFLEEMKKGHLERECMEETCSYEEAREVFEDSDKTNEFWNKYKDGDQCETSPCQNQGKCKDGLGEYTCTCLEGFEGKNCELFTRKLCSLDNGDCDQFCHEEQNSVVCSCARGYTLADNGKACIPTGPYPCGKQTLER

Turning to `CCCC(NC(=O)Nc1ccc(Cl)s1)C(=O)Nc1ccc(N2CCOCC2=O)cc1` (stereo not shown) [Compound A1, N-[4-(3-oxomorpholin-4-yl)-phenyl]-2-[3-(5-chlorothiophen-2-yl)ureido]valeramide], the IC50 in assay [1] stood at 0.18 µM; in assay [2], 0.19 µM.

Take `CCC[C@@H](NC(=O)Nc1ccc(Cl)s1)C(=O)Nc1ccc(N2CCOCC2=O)c(C)c1` [Compound A2, (R)-2-[3-(5-chlorothiophen-2-yl)ureido]-N-[4-(3-oxomorpholin-4-yl)-3-methylphenyl]valeramide]: the IC50 in assay [1] and in assay [2] was 0.066 µM throughout.

As a reminder, the IC50 is the concentration at which inhibition is half-maximal. Higher therefore signals weaker potency in that assay.

Source of the values: patent US20060135515A1, “Heterocyclic amides and their use treating thromboembolic diseases and tumors” (priority 2002, published 2006).
